Patent US12508261B2, “Methods of treating depression with vortioxetine” (Rundle Research LLC, priority 2017, dated 2025)

Key:
[1] = Regression model estimating vortioxetine half-life and MAOI delay from total body fat and steady-state plasma concentration (CYP2D6 metabolizer status); parameters: species or system human
Excerpt: Data obtained in the study described in Example 1 and Table 1 provided the basis for a regression model (having a r^2 value of 88%) based on total body fat and steady-state vortioxetine plasma concentration. Because the steady-state plasma concentration of vortioxetine correlates with metabolizer status, this regression provides a means of estimating vortioxetine half-life for patients based on total body fat and CYP2D6 metabolizer status.
Alternatively, the delay period can be calculated based on any particular values in Table 1, or any statistical parameter for characterizing the subject population of Table, such as the arithmetic mean, geometric mean, maximum, minimum, maximum or minimum 90% confidence interval, etc. of the half-life (e.g., 7.5×the average t1/2, 7.5×the maximum t1/2, and so forth, or the 21 day equivalency to a normal weight extensive metabolizer subject, based on the average t1/2 or the maximum t1/2 or any of the aforementioned statistically parameters).

[2] = TRINTELLIX label; cited from earlier work
[3] = Extensive(a) average of obese steady-state concentration for extensive metabolizers, total fat 60 kg
[4] = Extensive(a) average of obese steady-state concentration for extensive metabolizers, total fat 70 kg
[5] = Extensive(a) average of obese steady-state concentration for extensive metabolizers, total fat 80 kg
[6] = Extensive(a) average of obese steady-state concentration for extensive metabolizers, total fat 90 kg
[7] = Extensive(a) average of obese steady-state concentration for extensive metabolizers, total fat 100 kg
[8] = Extensive(b) high of extensive metabolizers, total fat 40 kg
[9] = Extensive(b) high of extensive metabolizers, total fat 50 kg
[10] = Extensive(b) high of extensive metabolizers, total fat 60 kg
[11] = Extensive(b) high of extensive metabolizers, total fat 70 kg
[12] = Extensive(b) high of extensive metabolizers, total fat 80 kg
[13] = Extensive(b) high of extensive metabolizers, total fat 90 kg
[14] = Extensive(b) high of extensive metabolizers, total fat 100 kg
[15] = IM(c) average of intermediate metabolizer values, total fat 10 kg
[16] = IM(c) average of intermediate metabolizer values, total fat 20 kg
[17] = IM(c) average of intermediate metabolizer values, total fat 30 kg
[18] = IM(c) average of intermediate metabolizer values, total fat 40 kg
[19] = IM(c) average of intermediate metabolizer values, total fat 50 kg
[20] = IM(c) average of intermediate metabolizer values, total fat 60 kg
[21] = IM(c) average of intermediate metabolizer values, total fat 70 kg
[22] = IM(c) average of intermediate metabolizer values, total fat 80 kg
[23] = IM(c) average of intermediate metabolizer values, total fat 90 kg
[24] = IM(c) average of intermediate metabolizer values, total fat 100 kg
[25] = IM(d) high of IM values, total fat 10 kg
[26] = IM(d) high of IM values, total fat 20 kg
[27] = IM(d) high of IM values, total fat 30 kg
[28] = IM(d) high of IM values, total fat 40 kg
[29] = IM(d) high of IM values, total fat 50 kg
[30] = IM(d) high of IM values, total fat 60 kg
[31] = IM(d) high of IM values, total fat 70 kg
[32] = IM(d) high of IM values, total fat 80 kg
[33] = IM(d) high of IM values, total fat 90 kg
[34] = IM(d) high of IM values, total fat 100 kg
[35] = PM(e) estimated poor metabolizer values, total fat 10 kg
[36] = PM(e) estimated poor metabolizer values, total fat 20 kg
[37] = PM(e) estimated poor metabolizer values, total fat 30 kg
[38] = PM(e) estimated poor metabolizer values, total fat 40 kg
[39] = PM(e) estimated poor metabolizer values, total fat 50 kg
[40] = PM(e) estimated poor metabolizer values, total fat 60 kg
[41] = PM(e) estimated poor metabolizer values, total fat 70 kg
[42] = PM(e) estimated poor metabolizer values, total fat 80 kg
[43] = PM(e) estimated poor metabolizer values, total fat 90 kg
[44] = PM(e) estimated poor metabolizer values, total fat 100 kg

Cc1ccc(Sc2ccccc2N2CCNCC2)c(C)c1 [vortioxetine]
Half-Life Estimates ([1]; Extensive(a) average of obese steady-state concentration for extensive metabolizers, total fat 10 kg): 21 h | Half-Life Estimates ([1]; Extensive(a) average of obese steady-state concentration for extensive metabolizers, total fat 20 kg): 32 h | Half-Life Estimates ([1]; Extensive(a) average of obese steady-state concentration for extensive metabolizers, total fat 30 kg): 42 h | Half-Life Estimates ([1]; Extensive(a) average of obese steady-state concentration for extensive metabolizers, total fat 40 kg): 52 h | Half-Life Estimates ([1]; Extensive(a) average of obese steady-state concentration for extensive metabolizers, total fat 50 kg): 62 h | Half-Life Estimates [1, 3]: 73 h | Weeks of Delay (7.5 X half-life) [1, 3]: 3.2 Weeks | Half-Life Estimates [1, 4]: 83 h | Weeks of Delay (7.5 X half-life) [1, 4]: 3.7 Weeks | Half-Life Estimates [1, 5]: 93 h | Weeks of Delay (7.5 X half-life) [1, 5]: 4.2 Weeks | Half-Life Estimates [1, 6]: 103 h | Weeks of Delay (7.5 X half-life) [1, 6]: 4.6 Weeks | Half-Life Estimates [1, 7]: 114 h | Weeks of Delay (7.5 X half-life) [1, 7]: 5.1 Weeks | Half-Life Estimates ([1]; Extensive(b) high of extensive metabolizers, total fat 10 kg): 39 h | Half-Life Estimates ([1]; Extensive(b) high of extensive metabolizers, total fat 20 kg): 49 h | Half-Life Estimates ([1]; Extensive(b) high of extensive metabolizers, total fat 30 kg): 59 h | Half-Life Estimates [1, 8]: 70 h | Weeks of Delay (7.5 X half-life) [1, 8]: 3.1 Weeks | Half-Life Estimates [1, 9]: 80 h | Weeks of Delay (7.5 X half-life) [1, 9]: 3.6 Weeks | Half-Life Estimates [1, 10]: 90 h | Weeks of Delay (7.5 X half-life) [1, 10]: 4.0 Weeks | Half-Life Estimates [1, 11]: 100 h | Weeks of Delay (7.5 X half-life) [1, 11]: 4.5 Weeks | Half-Life Estimates [1, 12]: 111 h | Weeks of Delay (7.5 X half-life) [1, 12]: 4.9 Weeks | Half-Life Estimates [1, 13]: 121 h | Weeks of Delay (7.5 X half-life) [1, 13]: 5.4 Weeks | Half-Life Estimates [1, 14]: 131 h | Weeks of Delay (7.5 X half-life) [1, 14]: 5.9 Weeks | Half-Life Estimates [1, 15]: 102 h | Weeks of Delay (7.5 X half-life) [1, 15]: 4.6 Weeks | Half-Life Estimates [1, 16]: 112 h | Weeks of Delay (7.5 X half-life) [1, 16]: 5.0 Weeks | Half-Life Estimates [1, 17]: 123 h | Weeks of Delay (7.5 X half-life) [1, 17]: 5.5 Weeks | Half-Life Estimates [1, 18]: 133 h | Weeks of Delay (7.5 X half-life) [1, 18]: 5.9 Weeks | Half-Life Estimates [1, 19]: 143 h | Weeks of Delay (7.5 X half-life) [1, 19]: 6.4 Weeks | Half-Life Estimates [1, 20]: 153 h | Weeks of Delay (7.5 X half-life) [1, 20]: 6.8 Weeks | Half-Life Estimates [1, 21]: 164 h | Weeks of Delay (7.5 X half-life) [1, 21]: 7.3 Weeks | Half-Life Estimates [1, 22]: 174 h | Weeks of Delay (7.5 X half-life) [1, 22]: 7.8 Weeks | Half-Life Estimates [1, 23]: 184 h | Weeks of Delay (7.5 X half-life) [1, 23]: 8.2 Weeks | Half-Life Estimates [1, 24]: 194 h | Weeks of Delay (7.5 X half-life) [1, 24]: 8.7 Weeks | Half-Life Estimates [1, 25]: 116 h | Weeks of Delay (7.5 X half-life) [1, 25]: 5.2 Weeks | Weeks of Delay (21 day equivalency to Normal, 66 hr half-life) [1, 25]: 5.3 Weeks | Half-Life Estimates [1, 26]: 126 h | Weeks of Delay (7.5 X half-life) [1, 26]: 5.6 Weeks | Weeks of Delay (21 day equivalency to Normal, 66 hr half-life) [1, 26]: 5.7 Weeks | Half-Life Estimates [1, 27]: 136 h | Weeks of Delay (7.5 X half-life) [1, 27]: 6.1 Weeks | Weeks of Delay (21 day equivalency to Normal, 66 hr half-life) [1, 27]: 6.2 Weeks | Half-Life Estimates [1, 28]: 147 h | Weeks of Delay (7.5 X half-life) [1, 28]: 6.5 Weeks | Weeks of Delay (21 day equivalency to Normal, 66 hr half-life) [1, 28]: 6.7 Weeks | Half-Life Estimates [1, 29]: 157 h | Weeks of Delay (7.5 X half-life) [1, 29]: 7.0 Weeks | Weeks of Delay (21 day equivalency to Normal, 66 hr half-life) [1, 29]: 7.1 Weeks | Half-Life Estimates [1, 30]: 167 h | Weeks of Delay (7.5 X half-life) [1, 30]: 7.5 Weeks | Weeks of Delay (21 day equivalency to Normal, 66 hr half-life) [1, 30]: 7.6 Weeks | Half-Life Estimates [1, 31]: 177 h | Weeks of Delay (7.5 X half-life) [1, 31]: 7.9 Weeks | Half-Life Estimates [1, 32]: 188 h | Weeks of Delay (7.5 X half-life) [1, 32]: 8.4 Weeks | Half-Life Estimates [1, 33]: 198 h | Weeks of Delay (7.5 X half-life) [1, 33]: 8.8 Weeks | Weeks of Delay (21 day equivalency to Normal, 66 hr half-life) [1, 33]: 9.0 Weeks | Half-Life Estimates [1, 34]: 208 h | Weeks of Delay (7.5 X half-life) [1, 34]: 9.3 Weeks | Weeks of Delay (21 day equivalency to Normal, 66 hr half-life) [1, 34]: 9.5 Weeks | Half-Life Estimates [1, 35]: 215 h | Weeks of Delay (7.5 X half-life) [1, 35]: 9.6 Weeks | Half-Life Estimates [1, 36]: 225 h | Weeks of Delay (7.5 X half-life) [1, 36]: 10.0 Weeks | Half-Life Estimates [1, 37]: 235 h | Weeks of Delay (7.5 X half-life) [1, 37]: 10.5 Weeks | Half-Life Estimates [1, 38]: 245 h | Weeks of Delay (7.5 X half-life) [1, 38]: 11.0 Weeks | Half-Life Estimates [1, 39]: 256 h | Weeks of Delay (7.5 X half-life) [1, 39]: 11.4 Weeks | Half-Life Estimates [1, 40]: 266 h | Weeks of Delay (7.5 X half-life) [1, 40]: 11.9 Weeks | Half-Life Estimates [1, 41]: 276 h | Weeks of Delay (7.5 X half-life) [1, 41]: 12.3 Weeks | Half-Life Estimates [1, 42]: 286 h | Weeks of Delay (7.5 X half-life) [1, 42]: 12.8 Weeks | Half-Life Estimates [1, 43]: 297 h | Weeks of Delay (7.5 X half-life) [1, 43]: 13.2 Weeks | Half-Life Estimates [1, 44]: 307 h | Weeks of Delay (7.5 X half-life) [1, 44]: 13.7 Weeks | time to achieve steady-state plasma concentrations [2]: ≤ 2 weeks
